Reference: PMC5571287 (Antimicrobial Agents and Chemotherapy, 2017)

Legend:
[1] = tested on: RSV A2 protein expression; assay: Western blotting of RSV proteins in RSV A2-infected HEp-2 cells; assay type: cell-based, respiratory syncytial virus; conditions: HEp-2, 3 days postinfection
Experimental: HEp-2 cells were seeded in 6-well plates at a density of 3 × 10^5/well (2 ml/well) 24 h before experimentation and were then treated with compounds (10 μl/well), simultaneously infected with RSV A2 (MOI, 1), and incubated for 72 h. Cells were washed with PBS and collected by scraping in 200 μl of PBS with protease and phosphatase inhibitor cocktail (PPI; Sigma-Aldrich; MSSAFE-1VL 1× in PBS), followed by two further washes with 200 μl of PBS, and the cell suspension was centrifuged to pellet. Radioimmunoprecipitation assay (RIPA) buffer (50 μl) containing 50 mM Tris-HCl (pH 7.4), 150 mM NaCl, 1% (vol/vol) NP-40, 0.25% (wt/vol) sodium deoxycholate, and PPI was applied to the cell pellet, which was vortexed and incubated for 30 min, on ice with further cell disruptions every 10 min. The protein concentration of the supernatant after centrifugation was determined by Bradford assay. The lysate containing 30 μg of protein was separated by electrophoresis on a 4 to 12% gradient bis-Tris polyacrylamide gel (Life Technologies; NP0335BOX) and then transferred to a nitrocellulose membrane using the iBlot gel transfer device (Life Technologies). The membrane was blocked with blocking buffer (TBS/T; 20 mM TBS and 0.1% Tween 20 with 5% skim milk) for 1 h at RT and incubated with anti-RSV F protein antibody (Abcam ab43812; 1:1,000) overnight at 4°C for F protein detection. […]

RSV B WST = assay: CPE assay, RSV B Washington in HEp-2 cells (resazurin); assay type: cell-based, respiratory syncytial virus; conditions: human respiratory syncytial virus, HEp-2
RSV A Long = assay: microbe, parasite or virus in culture; assay type: cell-based, respiratory syncytial virus
in vitro = conditions: rhesus monkey
RSVB 1262 = assay: microbe, parasite or virus in culture; assay type: cell-based; conditions: human respiratory syncytial virus, RSVB 1262, clinical
RSV A USU\v1225 = assay: CPE 2, neutral red 96-well CPE assay in HEp-2; assay type: cell-based; conditions: human respiratory syncytial virus
Experimental: (§1) For RSV A 2001/3-12, 1998/3-2, and USU⃥v1225, CPE was induced in HEp-2 cells for 7 days and the plates were then stained with neutral red dye for approximately 2 h. The intracellular incorporated dye was extracted in 50:50 Sorensen citrate buffer-ethanol and the absorbance read on a spectrophotometer. The optical density (OD) of test wells was converted to percentage of cell and virus controls. […] The virus inocula were ∼63 50% cell culture infectious doses (CCID50) per well for 2001/3-12, ∼40 CCID50/well for 1998/3-2, and ∼32 CCID50/well for USU\v1225. This assay was conducted in Utah State University (Logan, UT).

RSV A 2001/3-12 = assay: CPE 2, neutral red 96-well CPE assay in HEp-2; assay type: cell-based; conditions: human respiratory syncytial virus
Experimental: as §1

RSV A 1998/3-2 = assay: CPE 2, neutral red 96-well CPE assay in HEp-2; assay type: cell-based; conditions: human respiratory syncytial virus
Experimental: as §1

[2] = tested on: human mitochondrial polymerase; assay: Human polymerase inhibition in vitro (data not shown); assay type: biochemical; conditions: up to 1 μM
[3] = Antiviral panel: cytotoxicity; assay type: cell-based; conditions: human, Huh-7 cells with HCV GT1b replicon; Huh-7, GT1b replicon

Cc1cnc(N2CC3(CCOCC3)C2)c(C(=O)Nc2ccc(C(=O)N3CCc4cc(C(=O)Nc5c(C)cccc5F)sc4-c4ccccc43)cc2)c1 [PC786, N-(2-fluoro-6-methylphenyl)-6-(4-(5-methyl-2-(7-oxa-2-azaspiro[3.5]nonan-2-yl)nicotinamido)benzoyl)-5,6-dihydro-4H-benzo[b]thieno[2,3-d]azepine-2-carboxamide]
concentration above which no or little G, N, P, M, M2-1, and F1 protein bands were visible [1]: greater than 14 nM
IC50 (RSV B WST): 27.3 ± 0.77 nM
IC90 (RSV B WST): 57.1 ± 3.87 nM
IC90 or IC95 (RSV A Long; HEp-2): <0.42 nM
IC50 (RSV A Long; human respiratory syncytial virus, HEp-2, plaque reduction, applied 2 h before infection): < 0.42 nM
CC50 (in vitro): > 14000 nM
IC50 (RSVB 1262; read-out: CPE IC50): 14.5 nM
IC90 (RSVB 1262; read-out: CPE IC90): 692 nM
IC50 (RSV A USU\v1225): 1.3 nM
IC50 (RSV A 2001/3-12): 3.2 nM
IC50 (RSV A 1998/3-2): 2.5 nM
inhibitory effects on human mitochondrial polymerase [2]: no measurable inhibitory effects
CC50 at 3 days [3]: > 14000 nM
